We go through 29 compounds from patent US7799799B2, “Indolizine derivatives, method for preparing same, and therapeutic compositions comprising same” (Sanofi-Aventis, priority 2005, dated 2010).

The nature of this data set: Solubility test at pH=4 from phosphate buffer pH 6 0.1M, by HPLC. Format: physicochemical. Conditions: for solubility at 5 min: aqueous buffer, thermodynamic from solid, phosphate buffer pH 6 0.1M, HPLC, first figure of the S/pH cell, the pH of the sample is the second; for pH (of the solubility sample): second figure of the S/pH cell, pH noted for the solubility sample. The protocol: The results for solubility, S, and pH are shown in the table below and are expressed in mg/ml.
A phosphate buffer, pH6, 0.1M, was prepared by adding 6.15 ml of 0.1M Na2HPO4 to 43.85 ml of 0.1M NaH2PO4. The solution was made up to 100 ml with filtered water using a Millipore system (trade mark).
Reference (Test Product in a Concentration in which the Latter is Soluble and which Acts as an Internal Reference)
About 0.2 mg (in a boat) was weighed out exactly and diluted in 1 ml of H2O/CH3CN: (50:50), i.e. 0.2 mg/ml, then the sample was subjected to ultrasound for 5 minutes.
About 4 mg (in a boat) was weighed out exactly and diluted in 400 μl (i.e. 10 mg/ml) of pH6 phosphate buffer (0.1M), then the sample was subjected to ultrasound for 5 minutes.
The pH was noted and if the pH was below 4, 1 μl of NaOH 1N was added (from 1 μl in 1 μl) until the pH was more than 4, then the pH was noted again. The solution (0.45 μm) was filtered then if necessary diluted with the phosphate buffer pH6. (If the product re-precipitated after diluting, the diluted sample was ignored, the mother solution was used and the solubility was determined at a wavelength other than λmax, to avoid saturating the signal.
The solubility of the compound was then determined by HPLC under the following conditions:
Instrument: Agilent 1100 chromatograph
Column temperature: 30° C. Flow rate: 0.8 ml/min Detection: λ=230 nm Injection volume: 5 μl

Structures can show the parent of a compound that is named as a salt.

Consider `CCCc1cc2ccccn2c1C(=O)c1ccc(CCCCN(CC)CCC)cc1` [compound 32, (4-{4-[ethyl(propyl)amino]butyl}phenyl)(2-propylindolizin-3-yl)methanone hydrochloride], for which the solubility (in general, the dissolved amount per volume that the medium holds) at 5 min was 5640 µg/mL and the “pH (of the solubility sample)” value is recorded as 5.60.

On to `CCc1cc2ccccn2c1C(=O)c1ccc(CCCCN(CC)CC)cc1.O=C(O)C(=O)O` [compound 5, {4-[4-(diethylamino)butyl]phenyl}(2-ethylindolizin-3-yl)methanone oxalate], for which the solubility at 5 min is over 10000 µg/mL and the “pH (of the solubility sample)” value turned out to be 3.96.

On to `CCCN(CC)CCCCc1ccc(C(=O)c2c(C(C)C)cc3ccccn23)cc1` [compound 27, (4-{4-[ethyl(propyl)amino]butyl}phenyl)(2-isopropylindolizin-3-yl)methanone oxalate], for which the solubility at 5 min was found to be 2170 µg/mL and the “pH (of the solubility sample)” value stood at 6.5.

As for `CCCc1cc2ccccn2c1C(=O)c1ccc(CCCN(CC)CCC)cc1` [compound 29, (4-{3-[ethyl(propyl)amino]propyl}phenyl)(2-propylindolizin-3-yl)methanone hydrochloride], the solubility at 5 min was over 10000 µg/mL and the “pH (of the solubility sample)” value is recorded as 5.94. On to `CCCCc1cc2ccccn2c1C(=O)c1ccc(CCCN(CCC)CCC)cc1` [compound 7, (2-butylindolizin-3-yl){4-[3-(dipropylamino)propyl]phenyl}methanone hydrochloride], for which the solubility at 5 min was 8570 µg/mL and the “pH (of the solubility sample)” value was 5.65. In the same order, the values of `CCCCc1cc2ccccn2c1C(=O)c1ccc(CCCN2C[C@@H](C)N(C)[C@@H](C)C2)cc1` [compound 40, (2-butylindolizin-3-yl)(4-{3-[(3R,5S)-3,4,5-trimethylpiperazin-1-yl]propyl}phenyl)methanone hydrochloride] are 9930 µg/mL and 4.3. `CCCN(CC)CCCCc1ccc(C(=O)c2c(C)cc3ccccn23)cc1` [compound 28, (4-{4-[ethyl(propyl)amino]butyl}phenyl)(2-methylindolizin-3-yl)methanone hydrochloride]: the solubility at 5 min worked out at 1540 µg/mL and the “pH (of the solubility sample)” value came out at 7.01. Compound `CCCCc1cc2ccccn2c1C(=O)c1ccc(CCCN(C)C)cc1.Cl` [compound 38, (2-butylindolizin-3-yl){4-[3-(dimethylamino)propyl]phenyl}methanone hydrochloride] showed a solubility at 5 min of 1420 µg/mL.

As for `CCCCc1cc2ccc(C)cn2c1C(=O)c1ccc(CCCN(CCC)CCC)cc1` [compound 43, (2-butyl-6-methylindolizin-3-yl){4-[3-(dipropylamino)propyl]phenyl}methanone hydrochloride], the solubility at 5 min turned out to be 4460 µg/mL and the “pH (of the solubility sample)” value came out at 5.65. In the same order, the values of `CCCNCCCCc1ccc(C(=O)c2c(CCC)cc3ccccn23)cc1.Cl` [compound 36, {4-[4-(propylamino)butyl]phenyl}(2-propylindolizin-3-yl)methanone hydrochloride] are 2240 µg/mL and 6.3. In the case of `CCCCc1cc2ccccn2c1C(=O)c1ccc(CCCN2CCCCC2)cc1` [compound 42, (2-butylindolizin-3-yl)[4-(3-piperidin-1-ylpropyl)phenyl]methanone oxalate], the solubility at 5 min was determined as 1660 µg/mL and the “pH (of the solubility sample)” value came to 5.18.

Consider `CCCCN(CCCC)CCCCc1ccc(C(=O)c2c(CC)cc3ccccn23)cc1` [compound 21, {4-[4-(dibutylamino)butyl]phenyl}(2-ethylindolizin-3-yl)methanone oxalate], for which the solubility at 5 min came out at 6900 µg/mL and the “pH (of the solubility sample)” value is reported as 4.08. In the same order, the values of `CCCCN(CCCC)CCCc1ccc(C(=O)c2c(CC)cc3ccccn23)cc1` [compound 18, {4-[3-(dibutylamino)propyl]phenyl}(2-ethylindolizin-3-yl)methanone hydrochloride] are 6510 µg/mL and 5.42. In the same order, the values of `CCCCc1cc2ccccn2c1C(=O)c1ccc(CCCNCCC)cc1.Cl` [compound 37, (2-butylindolizin-3-yl){4-[3-(propylamino)propyl]phenyl}methanone hydrochloride] are 1780 µg/mL and 7.14.

Consider `CCCCc1cc2ccc(CC)cn2c1C(=O)c1ccc(CCCN(CCC)CCC)cc1` [compound 44, (2-butyl-6-ethylindolizin-3-yl){4-[3-(dipropylamino)propyl]phenyl}methanone hydrochloride], for which the solubility at 5 min is over 10000 µg/mL and the “pH (of the solubility sample)” value stood at 6.05.

Take `CCCN(CCC)CCCc1ccc(C(=O)c2c(C)cc3ccccn23)cc1` [compound 13, {4-[3-(dipropylamino)propyl]phenyl}(2-methylindolizin-3-yl)methanone hydrochloride]: the solubility at 5 min came to 1610 µg/mL and the “pH (of the solubility sample)” value amounted to 7.2.

For the compound `CCCN(CC)CCCc1ccc(C(=O)c2c(C)cc3ccccn23)cc1` [compound 26, (4-{3-[ethyl(propyl)amino]propyl}phenyl)(2-methylindolizin-3-yl)methanone hydrochloride], the solubility at 5 min turned out to be 1490 µg/mL and the “pH (of the solubility sample)” value was 7.14.

Take `CCCc1cc2ccccn2c1C(=O)c1ccc(CCCCN(CC)CC)cc1.Cl` [compound 6, {4-[4-(diethylamino)butyl]phenyl}(2-propylindolizin-3-yl)methanone hydrochloride]: the solubility at 5 min is over 10000 µg/mL and the “pH (of the solubility sample)” value is 5.79.

Take `CCCCc1cc2ccccn2c1C(=O)c1ccc(CCCN2C[C@@H](C)N[C@@H](C)C2)cc1` [compound 39, (2-butylindolizin-3-yl)(4-{3-[(3R,5S)-3,5-dimethylpiperazin-1-yl]propyl}phenyl)methanone hydrochloride]: the solubility at 5 min was over 10000 µg/mL and the “pH (of the solubility sample)” value was found to be 4.22. Turning to `CCCN(CCC)CCCCc1ccc(C(=O)c2c(CC)cc3ccccn23)cc1` [compound 11, {4-[4-(dipropylamino)butyl]phenyl}(2-ethylindolizin-3-yl)methanone hydrochloride], the solubility at 5 min is over 10000 µg/mL and the “pH (of the solubility sample)” value is 5.82. In the same order, the values of `CCCN(CCC)CCCCc1ccc(C(=O)c2c(C(C)C)cc3ccccn23)cc1` [compound 14, {4-[4-(dipropylamino)butyl]phenyl}(2-isopropylindolizin-3-yl)methanone oxalate] are 2330 µg/mL and 4.10. For `CCCCc1cc2ccccn2c1C(=O)c1ccc(CCCCN(CCC)CCC)cc1` [compound 10, (2-butylindolizin-3-yl){4-[4-(dipropylamino)butyl]phenyl}methanone hydrochloride], in that order: over 10000 µg/mL and 5.81. As for `CCCc1cc2ccccn2c1C(=O)c1ccc(CCCCN(CCC)CCC)cc1` [compound 16, {4-[4-(dipropylamino)butyl]phenyl}(2-propylindolizin-3-yl)methanone hydrochloride], the solubility at 5 min was over 10000 µg/mL and the “pH (of the solubility sample)” value amounted to 5.81. As for `CCCCc1cc2ccccn2c1C(=O)c1ccc(CCCN(CC)CCC)cc1` [compound 23, (2-butylindolizin-3-yl)(4-{3-[ethyl(propyl)amino]propyl}phenyl)methanone hydrochloride], the solubility at 5 min is over 10000 µg/mL and the “pH (of the solubility sample)” value is given as 6.06. In the same order, the values of `CCCc1cc2ccccn2c1C(=O)c1ccc(CCCN(CC)CC)cc1.Cl` [compound 3, {4-[3-(diethylamino)propyl]phenyl}(2-propylindolizin-3-yl)methanone hydrochloride] are over 10000 µg/mL and 5.82.

For the compound `CCCCN(CCCC)CCCc1ccc(C(=O)c2c(CCC)cc3ccccn23)cc1` [compound 19, {4-[3-(dibutylamino)propyl]phenyl}(2-propylindolizin-3-yl)methanone hydrochloride], the solubility at 5 min amounted to 4070 µg/mL and the “pH (of the solubility sample)” value worked out at 5.27. For `CCCCc1cc2ccccn2c1C(=O)c1ccc(CCCCN(CC)CCC)cc1` [compound 30, (2-butylindolizin-3-yl)(4-{4-[ethyl(propyl)amino]butyl}phenyl)methanone hydrochloride], in that order: over 10000 µg/mL and 5.85. With `CCCCc1cc2ccccn2c1C(=O)c1ccc(CCCCN(CC)CC)cc1.O=C(O)C(=O)O` [compound 4, (2-butylindolizin-3-yl){4-[4-(diethylamino)butyl]phenyl}methanone oxalate], the solubility at 5 min was over 10000 µg/mL and the “pH (of the solubility sample)” value came out at 4.10. As to `CCCCc1cc2ccccn2c1C(=O)c1ccc(CCCCN(CCCC)CCCC)cc1` [compound 20, (2-butylindolizin-3-yl){4-[4-(dibutylamino)butyl]phenyl}methanone oxalate], the solubility at 5 min was 2950 µg/mL and the “pH (of the solubility sample)” value was determined as 4.02.
